Results as given in PMC5470993, “Discovery and characterization of small molecule Rac1 inhibitors” (Oncotarget, 2017).
Like-named read-outs stand apart in the source and are kept apart here.

Columns and labels:
Rac1 (His-Rac1) [1] = target: T1, Rac1 (His-Rac1) (Homo sapiens, UniProt P63000); test: GST-PAK1 pull-down of Rac1-GTP-γS, immunoblot; type: binding
T1 construct: wild type by context

Rac1 (His-Rac1) [2] = target: T1, Rac1 (His-Rac1); test: fluorescence polarization competition with mant-GDP; type: binding
[3] = target: T2, Rac1 (endogenous, CD18/HPAF cells) (Homo sapiens, UniProt P63000); test: Rac1-GTP pull-down with GST-PAK1 from EGF-stimulated cells, immunoblot; type: cell-based; conditions: intact cells, 2 h compound, then EGF 100 ng/ml 5 min
T2 construct: endogenous Rac1 of CD18/HPAF human pancreatic cancer cells; Rac1-GTP captured with GST-PAK1 and blotted with Rac1 antibody 23A8

Rac1 (His-Rac1) [4] = target: T1, Rac1 (His-Rac1); test: GST-PAK1 pull-down of Rac1-GTP-γS, immunoblot; conditions: read-out: apparent binding affinity

Compound | IC50 (Rac1 (His-Rac1) [1]; read-out: IC50) [nM] | Ki (Rac1 (His-Rac1) [2]) [µM] | EC50 [3] [µM] | IC50 (Rac1 (His-Rac1) [1]) [nM] | Kd (Rac1 (His-Rac1) [4]) [nM]
CC(=O)c1cccc(NC(=O)c2ccc(-c3cccc([N+](=O)[O-])c3)o2)c1 [#1, compound #1] | 95 ± 21 | 6.8 ± 1.4 | 8.3 ± 1.7 | – | –
Cc1cc(C)cc(NC(=O)Cn2cc(C(=O)c3cccs3)c3ccccc32)c1 [#6, compound #6] | – | – | 22.4 ± 3.2 | 88 ± 48 | –
Nc1nc2c(ncn2[C@@H]2O[C@H](COP(=O)(O)OP(=O)(O)OP(O)(O)=S)[C@@H](O)[C@H]2O)c(=O)[nH]1 [GTP-γS] | – | – | – | – | 243 ± 93
